Data reported in patent publication US20070043064A1, “7-Substituted 3-nitro-pyrazo[1,5-a] pyrimidines” (FERRER INTERNACIONAL S.A., priority 2003, published 2007).
Read-outs that look alike come from different tables or passages of the source.

Key:
male CD1 mice = experiment: Predictive sedation-hypnosis test in mice (motor activity, crossings); type: in vivo; settings: single equimolecular intraperitoneal dose, crossings over 30 min after dosing (first 5 min discarded) versus control animals
Protocol: In Vivo Determination of Predictive Sedative-Hypnotic Action.
The in vivo effects of these compounds were assessed by a predictive sedation-hypnosis test in mice (D. J. Sanger et al., Eur. J. Pharmacol., 313, 35-42, 1996; and G. Griebel et al., Psychopharmacology, 146, 205-213, 1999).
Groups of 5-8 male CD1 mice, weighing 22-26 g at the time of test, were used. The test compounds were administered in single equimolecular intraperitoneal doses, suspended in 0.25% agar with one drop of Tween in a volume of 10 ml/kg. Control animals received the vehicle alone. Using an Actisystem DAS16 (Panlab, S. L., Spain) the crossings (number of counts) were recorded for each mouse at 5-min intervals during a period of 30 minutes after dosing. The inhibition percentage of crossings of treated animals versus control animals (the first 5 min were discarded) was calculated.

α1-GABAA receptor = biological target: T1, α1-GABAA receptor (Rattus norvegicus, UniProt P62813); experiment: Ligand-binding assay, radiolabeled flumazenil competition, cerebellum membranes
T1 construct: the cerebellum (tissue that mostly contains α1-GABAA receptor); from tissue; host or cells: rat cerebellum membranes
Protocol: (§1) Ligand-Binding Assays. Determination of the Affinity of Test Compounds for α1- and α2-GABAA Receptors.
(§2) Male Sprague-Dawley rats weighing 200-250 g at the time of experiment were used. After decapitation of the animal, the cerebellum (tissue that mostly contains α1-GABAA receptor) and spinal cord (tissue that mostly contains α2-GABAA receptor) were removed. The membranes were prepared according to the method by J. Lameh et al. (Prog. Neuro-Psychopharmacol. Biol. Psychiatry, 24, 979-991, 2000). Once the tissues weighed, they were suspended in 50 mM Tris HCl buffer, pH 7.7, (1:40 v/v), homogenized and then centrifuged at 20000 g for 10 min at 7° C. The resulting pellet was resuspended under the same conditions and centrifuged again. The final pellet obtained was resuspended on a minimum volume and kept at −80° C. overnight. On the next day, the process was repeated until the final pellet was resuspended at a ratio of 1:10 (v/v).
(§3) The affinity of the compounds was determined by competitive tests using radiolabeled flumazenil as ligand. The methods described by S. Arbilla et al. (Eur. J. Pharmacol., 130, 257-263, 1986); and Y. Wu et al. (Eur. J. Pharmacol., 278, 125-132, 1995) were used. The membranes containing the study receptors, flumazenil (radiolabeling at a final concentration of 1 nM) and ascending concentrations of test compounds (in a total volume of 500 μl in […] [ph 7.4] Tris HCl buffer) were incubated. Simultaneously, the membranes were only incubated with the radiolabeled flumazenil (total binding, 100%) and in the presence of an elevated concentration of unradiolabeled flumazenil (non-specific binding, % estimate of radiolabeled ligand). The reactions started on adding the radiolabeled ligand followed by incubation for 60 minutes at 0° C. At the end of the incubation period, the tubes were filtered using a Brandel Mod. M-48R harvester and then washed three times with cold test buffer. The harvester was fitted with a GF/B filter that retained the membranes containing the receptors and the radiolabeled ligand which had been bound to the receptors. Then the filters were removed and left till dry. Once dried, the filters were cut, placed in vials with scintillation liquid and left under stirring overnight. The next day the filters were counted using a Packard Mod. Tricarb scintillation counter.
(§4) T: total binding, maximum amount bound to the radiolabeled ligand. N: Non-specific binding, amount of radiolabeled ligand bound in a non-specific way irrespective of the receptor used.
(§5) Every concentrations of compound were tested in duplicate and their mean values were used to determine the experimental values of % specific binding versus the concentration of compound. […] Inhibition constants (Ki) were calculated from the IC50 values according to Cheng-Prusoff's formula (Y. Cheng y W. H. Prusoff, Biochem. Pharmacol., 22(23), 3099-3108, 1973).

α2-GABAA receptor = α2-GABAA receptor (Rattus norvegicus, UniProt P18508+P23576); experiment: Ligand-binding assay, radiolabeled flumazenil competition, spinal cord membranes; settings: for inhibition at 10 µM: compound at 10^−5M; for inhibition at 0.1 µM: compound at 10^−7M
Protocol: as §1, §2, §3, §4, §5

[1] = read-out: Affinity for α1-GABAA receptor, Ki

## O=[N+]([O-])c1cnn2c(-c3ccc(C(F)(F)F)cc3)ccnc12
other
  melting point: 191 to 193 °C

## CCCN(C(C)=O)c1cccc(-c2ccnc3c([N+](=O)[O-])cnn23)c1 [Example 3, N-[3-(3-nitro-pyrazolo[1,5-a]pyrimidin-7-yl)-phenyl]-N-(n-propyl)-acetamide]
Male CD1 mice
  % Inhibition Motor Activity: 61.68%
α1-GABAA receptor; [1]
  Ki: 110 nM

## CCN(c1cccc(-c2ccnc3c([N+](=O)[O-])cnn23)c1)S(C)(=O)=O [Example 15, N-ethyl-N-[3-(3-nitro-pyrazolo[1,5-a]pyrimidin-7-yl)-phenyl]-methanesulfonamide]
α1-GABAA receptor
  Ki: 11.1 nM

## O=[N+]([O-])c1cnn2c(-c3cccc(N4CCCS4(=O)=O)c3)ccnc12 [Example 34, 7-(3-(2-isothiazolidinyl-1,1-dioxide)-phenyl)-3-nitro-pyrazolo[1,5-a]pyrimidine]
Male CD1 mice
  % Inhibition Motor Activity: 64.23%
α2-GABAA receptor
  inhibition at 10 µM: 86.9%
  inhibition at 0.1 µM: 4.3%
α1-GABAA receptor; [1]
  Ki: 165 nM

## CCCCN(c1cccc(-c2ccnc3c([N+](=O)[O-])cnn23)c1)S(=O)(=O)c1ccccc1
other
  melting point: 159 to 160 °C

## CCCN(c1cccc(-c2ccnc3c([N+](=O)[O-])cnn23)c1)S(=O)(=O)c1ccccc1
other
  melting point: 154 to 156 °C

## CC(C)S(=O)(=O)N(C)c1cccc(-c2ccnc3c([N+](=O)[O-])cnn23)c1 [Example 35, N-[3-(3-nitro-pyrazolo[1,5-a]pyrimidin-7-yl)-phenyl]-N-methyl-propane-2-sulfonamide]
Male CD1 mice
  % Inhibition Motor Activity: 91.21%
α2-GABAA receptor
  inhibition at 10 µM: 91.5%
  inhibition at 0.1 µM: 18.9%
α1-GABAA receptor
  Ki: 41.2 nM

## CCCCN(c1cccc(-c2ccnc3c([N+](=O)[O-])cnn23)c1)S(=O)(=O)c1ccc(OC)cc1
other
  melting point: 189 to 190 °C

## C#CCN(c1cccc(-c2ccnc3c([N+](=O)[O-])cnn23)c1)S(=O)(=O)C(C)C [Example 31, N-[3-(3-nitro-pyrazolo[1,5-a]pyrimidin-7-yl)-phenyl]-N-(n-prop-2-inyl)-propane-2-sulfonamide]
Male CD1 mice
  % Inhibition Motor Activity: 94.31%
α2-GABAA receptor
  inhibition at 10 µM: 81.3%
  inhibition at 0.1 µM: 4.2%
α1-GABAA receptor
  Ki: 48.5 nM

## O=[N+]([O-])c1cnn2c(-c3cccs3)ccnc12
other
  melting point: 235 to 237 °C

## O=[N+]([O-])c1cnn2c(-c3ccncc3)ccnc12
other
  melting point: 241 to 244 °C

## CC(=O)N(C)c1cccc(-c2ccnc3c([N+](=O)[O-])cnn23)c1 [Example 2, N-methyl-N-[3-(3-nitro-pyrazolo[1,5-a]pyrimidin-7-yl)-phenyl]-acetamide]
Male CD1 mice
  % Inhibition Motor Activity: 77.25%
α1-GABAA receptor
  Ki: 96.8 nM

## CCCCN(c1cccc(-c2ccnc3c([N+](=O)[O-])cnn23)c1)S(C)(=O)=O
other
  melting point: 153 to 155 °C

## C#CCN(c1cccc(-c2ccnc3c([N+](=O)[O-])cnn23)c1)S(C)(=O)=O [Example 28, N-[3-(3-nitro-pyrazolo[1,5-a]pyrimidin-7-yl)-phenyl]-N-(prop-2-inyl)-methanesulfonamide]
Male CD1 mice
  % Inhibition Motor Activity: 94.19%
α2-GABAA receptor
  inhibition at 10 µM: 96.4%
  inhibition at 0.1 µM: 29%
α1-GABAA receptor
  Ki: 11.7 nM

## O=[N+]([O-])c1cnn2c(-c3ccco3)ccnc12
other
  melting point: 235 to 237 °C

## O=[N+]([O-])c1cnn2c(-c3cccnc3)ccnc12
other
  melting point: 302 to 303 °C

## CCCN(c1cccc(-c2ccnc3c([N+](=O)[O-])cnn23)c1)S(=O)(=O)c1ccc(OC)cc1
other
  melting point: 184 to 185 °C

## O=[N+]([O-])c1cnn2c(-c3ccccc3C(F)(F)F)ccnc12
other
  melting point: 195 to 197 °C

## CCS(=O)(=O)N(C)c1cccc(-c2ccnc3c([N+](=O)[O-])cnn23)c1 [Example 32, N-[3-(3-nitro-pyrazolo[1,5-a]pyrimidin-7-yl)-phenyl]-N-methyl-ethanesulfonamide]
Male CD1 mice
  % Inhibition Motor Activity: 91.57%
α2-GABAA receptor
  inhibition at 10 µM: 89%
  inhibition at 0.1 µM: 21%
α1-GABAA receptor
  Ki: 31 nM

## CCN(C(C)=O)c1cccc(-c2ccnc3c(C#N)cnn23)c1 [Zaleplon, zaleplon, reference compound]
Male CD1 mice
  % Inhibition Motor Activity: 47.17%
α2-GABAA receptor
  inhibition at 10 µM: 78.4%

## C#CCN(C(C)=O)c1cccc(-c2ccnc3c([N+](=O)[O-])cnn23)c1 [Example 5, N-[3-(3-nitro-pyrazolo[1,5-a]pyrimidin-7-yl)-phenyl]-N-(2-propynyl)-acetamide]
Male CD1 mice
  % Inhibition Motor Activity: 79.06%
α1-GABAA receptor
  Ki: 38.6 nM

## O=[N+]([O-])c1cnn2c(-c3cccc(C(F)(F)F)c3)ccnc12 [Example 8, 3-nitro-7-(3-trifluoromethyl-phenyl)-pyrazolo[1,5-a]pyrimidine]
Male CD1 mice
  % Inhibition Motor Activity: 69.08%
α1-GABAA receptor; [1]
  Ki: 623 nM
other
  melting point: 159 to 161 °C

## CN(c1cccc(-c2ccnc3c([N+](=O)[O-])cnn23)c1)S(C)(=O)=O [Example 18, N-methyl-N-[3-(3-nitro-pyrazolo[1,5-a]pyrimidin-7-yl)-phenyl]-methanesulfonamide]
Male CD1 mice
  % Inhibition Motor Activity: 68.55%
α1-GABAA receptor
  Ki: 28.3 nM

## O=C1CCCN1c1cccc(-c2ccnc3c([N+](=O)[O-])cnn23)c1
other
  melting point: 226 to 228 °C

## CCN(C(C)=O)c1cccc(-c2ccnc3c([N+](=O)[O-])cnn23)c1 [Example 1, N-ethyl-N-[3-(3-nitro-pyrazolo[1,5-a]pyrimidin-7-yl)-phenyl]-acetamide]
Male CD1 mice
  % Inhibition Motor Activity: 77.25%
α1-GABAA receptor
  Ki: 88.6 nM
other
  melting point: 176 to 178 °C

## CCCN(c1cccc(-c2ccnc3c([N+](=O)[O-])cnn23)c1)S(C)(=O)=O [Example 25, N-[3-(3-nitro-pyrazolo[1,5-a]pyrimidin-7-yl)-phenyl]-N-(n-propyl)-methanesulfonamide]
Male CD1 mice
  % Inhibition Motor Activity: 61.06%
α1-GABAA receptor
  Ki: 102 nM
other
  melting point: 165 to 167 °C

## CCN(c1cccc(-c2ccnc3c([N+](=O)[O-])cnn23)c1)S(=O)(=O)c1ccc(OC)cc1
other
  melting point: 209 to 211 °C

## COc1ccc(S(=O)(=O)N(C)c2cccc(-c3ccnc4c([N+](=O)[O-])cnn34)c2)cc1
other
  melting point: 205 to 206 °C
